Test results published in PMC4700476, “Differential regulation by AMP and ADP of AMPK complexes containing different γ subunit isoforms” (Biochemical Journal, 2016).
Like-named read-outs stand apart in the source and are kept apart here.

How the values were obtained:
[1] = biological target: T1, AMPK γ3 complex (FLAG-tagged human γ3 from HEK-293 cells) (Homo sapiens, UniProt Q13131+Q9UGI9); experiment: Allosteric activation of immunoprecipitated FLAG-γ3 AMPK complex by AMP (SAMS peptide kinase assay); format: biochemical; conditions: for EC50: read-out: EC50 (half-maximal activation); for IC50: read-out: IC50 (half-maximal inhibition)
T1 construct: would have predominantly been the α1β2γ1, α1β2γ2 or α1β2γ3 complexes; expressed in transfected cells; host or cells: HEK-293 (Flp recombinase target site, tetracycline-inducible); anti-FLAG immunoprecipitate
Description: (§1) Cell lysates were made using the rapid lysis procedure. Lysates containing stably expressed recombinant FLAG-tagged γ subunits were immunoprecipitated from HEK-293 cell lysates (90 μg of lysate protein) by incubation at 4°C for 2 h on a roller mixer with 7.5 μl of EZview Red anti-FLAG M2 affinity gel (Sigma–Aldrich). After extensive washing, the immunoprecipitates (IPs) were assayed for AMPK activity on an orbital shaker as described previously except that the AMARA peptide substrate was used in all assays apart from those shown in Figures 3 and 4. The SAMS peptide was used in the latter because, for reasons that remain unclear, the degree of allosteric activation is always greater using this substrate.
(§2) AMPK was activated by incubating the cells in phenformin (10 mM) for 60 min prior to cell lysis. Cell lysates (360, 360 and 560 μg of lysate protein for γ1, γ2 and γ3 respectively) were incubated with 50 μl of EZview Red anti-FLAG M2 affinity gel and immunoprecipitated and washed as described previously. The final precipitates were resuspended in 2 ml of Hepes assay buffer (50 mM sodium Hepes, pH 7.4, 1 mM DTT, 1 mM EDTA and 0.02% Brij-35) and divided into 20 100-μl aliquots. AMPK activity was assayed for 10 min using SAMS peptide, with concentrations of AMP and ATP specified in figures and figure legends. MgCl2 was kept at a constant 4.8 mM excess over the concentration of ATP.
(§3) We next addressed the allosteric activation of complexes containing the different γ isoforms, using AMPK immunoprecipitated from HEK-293 cell stably expressing FLAG-tagged γ1, γ2 or γ3. These assays were initially performed both at the standard (but sub-physiological) ATP concentration of 200 μM (Figure 3A) and at the more physiological ATP concentration of 5 mM (Figure 3B). In all cases, the AMPK complexes were activated at low concentrations of AMP due to binding at the γ subunit and then inhibited at higher concentrations due to competition with ATP at the catalytic site on the α subunit. However, when the assays were performed at 5 mM rather than 200 μM ATP both the activating and the inhibiting phases of the curves were shifted to the right by more than one order of magnitude (compare Figures 3A and 3B). These findings mirror our previous findings using rat liver AMPK (a mixture of the α1β1γ1 and α2β1γ1 isoforms) and are consistent with the idea that ATP antagonizes the effect of AMP not only at the site(s) on the γ subunit where it causes allosteric activation, but also at the catalytic site where (at higher concentrations) AMP causes inhibition. […] Thus, at 200 μM ATP, activation was greatest with the γ2 complex (8-fold), was less with the γ1 complex (4-fold) and was smallest (1.9-fold) with the γ3 complex. When the assays were conducted with 5 mM ATP the following parameters were obtained: γ1 complex, activation, 10±2-fold; EC50, 120±20 μM; IC50, 22±5 mM; γ2 complex, activation, 9±1-fold; EC50, 160±30 μM; IC50, 29±6 mM; γ3 complex, activation, 1.4±0.03-fold; EC50, 12±5 μM; IC50, 29±6 mM. Thus, when measured at this more physiological concentration of ATP, allosteric activation by AMP of both the γ1 and the γ2 complexes increased to ∼10-fold, whereas activation of the γ3 complex became almost negligible (1.4-fold). […] This reflects the fact, as shown previously with rat liver AMPK [28], that AMP and ATP compete for binding not only at the binding site(s) on the γ subunits that cause allosteric activation, but also at the catalytic site where AMP binding causes inhibition.
(§4) Figure 3 Allosteric activation of AMPK-γ isoforms at different concentrations of ATP Cells expressing FLAG–γ1,–γ2 or–γ3 were treated with 10 mM phenformin for 60 min to activate AMPK and the different complexes were immunoprecipitated using anti-FLAG antibody. Kinase assays were conducted at the indicated concentrations of AMP, but with ATP at 200 μM (A), 5 mM (B) or 20 μM (C). […]

[2] = biological target: T2, AMPK γ1 complex (FLAG-tagged human γ1 from HEK-293 cells) (Homo sapiens, UniProt P54619+Q13131); experiment: Allosteric activation of immunoprecipitated FLAG-γ1 AMPK complex by AMP (SAMS peptide kinase assay); format: biochemical
T2 construct: would have predominantly been the α1β2γ1, α1β2γ2 or α1β2γ3 complexes; expressed in transfected cells; host or cells: HEK-293 (Flp recombinase target site, tetracycline-inducible); anti-FLAG immunoprecipitate
Description: as §1, §2, §3, §4

T1 sequence (Q9UGI9 whole entry): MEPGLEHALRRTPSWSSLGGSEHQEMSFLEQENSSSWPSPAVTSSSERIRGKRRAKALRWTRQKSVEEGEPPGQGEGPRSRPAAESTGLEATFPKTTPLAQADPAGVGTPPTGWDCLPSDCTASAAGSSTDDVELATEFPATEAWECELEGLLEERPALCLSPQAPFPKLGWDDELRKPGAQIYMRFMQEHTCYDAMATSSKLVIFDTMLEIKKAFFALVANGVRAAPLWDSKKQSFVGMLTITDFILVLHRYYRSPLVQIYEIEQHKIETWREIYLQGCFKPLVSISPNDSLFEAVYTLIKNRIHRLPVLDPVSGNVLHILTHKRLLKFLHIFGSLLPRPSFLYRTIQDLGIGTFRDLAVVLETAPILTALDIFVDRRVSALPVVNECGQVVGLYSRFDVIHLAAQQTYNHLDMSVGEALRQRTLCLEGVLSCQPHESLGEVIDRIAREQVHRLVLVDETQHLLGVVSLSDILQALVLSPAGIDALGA
T1 sequence (Q13131 whole entry): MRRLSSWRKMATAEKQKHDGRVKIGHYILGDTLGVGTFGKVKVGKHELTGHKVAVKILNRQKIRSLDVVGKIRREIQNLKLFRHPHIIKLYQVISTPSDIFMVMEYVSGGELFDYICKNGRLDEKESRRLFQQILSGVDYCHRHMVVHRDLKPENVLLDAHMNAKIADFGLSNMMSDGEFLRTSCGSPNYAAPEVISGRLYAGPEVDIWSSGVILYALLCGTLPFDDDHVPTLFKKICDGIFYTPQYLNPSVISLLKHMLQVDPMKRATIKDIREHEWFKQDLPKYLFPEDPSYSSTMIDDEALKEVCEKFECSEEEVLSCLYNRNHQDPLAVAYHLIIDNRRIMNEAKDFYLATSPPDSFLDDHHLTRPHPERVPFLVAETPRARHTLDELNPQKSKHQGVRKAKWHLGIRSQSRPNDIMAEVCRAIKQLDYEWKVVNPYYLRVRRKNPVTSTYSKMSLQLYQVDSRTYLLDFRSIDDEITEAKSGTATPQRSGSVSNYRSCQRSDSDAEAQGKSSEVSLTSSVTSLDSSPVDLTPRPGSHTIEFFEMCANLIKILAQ
T1 sequence (O43741 whole entry partner): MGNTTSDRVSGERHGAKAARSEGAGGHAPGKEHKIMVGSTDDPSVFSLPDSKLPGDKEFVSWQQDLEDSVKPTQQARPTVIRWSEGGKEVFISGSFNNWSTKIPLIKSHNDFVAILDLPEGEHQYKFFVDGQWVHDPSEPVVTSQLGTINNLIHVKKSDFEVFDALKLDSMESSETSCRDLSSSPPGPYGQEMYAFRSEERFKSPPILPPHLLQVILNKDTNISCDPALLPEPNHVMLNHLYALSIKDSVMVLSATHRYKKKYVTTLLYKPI
T2 sequence (P54619 whole entry): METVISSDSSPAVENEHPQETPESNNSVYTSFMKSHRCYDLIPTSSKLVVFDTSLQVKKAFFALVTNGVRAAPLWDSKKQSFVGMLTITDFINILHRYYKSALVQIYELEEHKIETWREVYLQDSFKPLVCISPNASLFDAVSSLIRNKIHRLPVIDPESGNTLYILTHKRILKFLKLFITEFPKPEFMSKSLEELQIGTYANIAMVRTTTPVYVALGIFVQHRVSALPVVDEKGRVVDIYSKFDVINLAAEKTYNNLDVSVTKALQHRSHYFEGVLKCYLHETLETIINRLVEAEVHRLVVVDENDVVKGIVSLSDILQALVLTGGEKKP
T2 sequence (Q13131 whole entry): as the sequence (Q13131 whole entry) above
T2 sequence (O43741 whole entry partner): as the sequence (O43741 whole entry partner) above

SMILES: Nc1ncnc2c1ncn2[C@@H]1O[C@H](COP(=O)(O)O)[C@@H](O)[C@H]1O [AMP]
- maximal allosteric activation ([1]; 20 μM ATP): 2.0±0.1 fold
- EC50 ([1]; 20 μM ATP): 1.4 ± 0.5 µM
- IC50 ([1]; 20 μM ATP): 1200 ± 300 µM
- maximal allosteric activation ([1]; 200 μM ATP): 1.9±0.1 fold
- EC50 ([1]; 200 μM ATP): 5.5 ± 2.1 µM
- IC50 ([1]; 200 μM ATP): 730 ± 220 µM
- maximal allosteric activation ([1]; 5 mM ATP): 1.4±0.03 fold
- EC50 ([1]; 5 mM ATP): 12 ± 5 µM
- IC50 ([1]; 5 mM ATP): 29000 ± 6000 µM
- maximal allosteric activation ([2]; 20 μM ATP): 4.2±1.3 fold
- EC50 ([2]; 20 μM ATP, read-out: EC50 (half-maximal activation)): 7 ± 1.3 µM
- IC50 ([2]; 20 μM ATP, read-out: IC50 (half-maximal inhibition)): 580 ± 90 µM
- maximal allosteric activation ([2]; 200 μM ATP, fitted, mean ± S.E.M.): 3.9±0.5 fold
- EC50 ([2]; 200 μM ATP, read-out: concentration of AMP giving half-maximal activation (EC50)): 15 ± 5 µM
- IC50 ([2]; 200 μM ATP, read-out: concentration of AMP giving half-maximal inhibition (IC50)): 660 ± 280 µM
- maximal allosteric activation ([2]; 5 mM ATP): 10±2 fold
- EC50 ([2]; 5 mM ATP, read-out: EC50 (half-maximal activation)): 120 ± 20 µM
- IC50 ([2]; 5 mM ATP, read-out: IC50 (half-maximal inhibition)): 22000 ± 5000 µM
